The source made the active and inactive calls. The rule behind the calls is not given here.
Experiments:
HeLa [1] = experiment: Photodynamic cytotoxicity in human HeLa cells assessed as reduction in cell viability incubated in blue light for 5 mins every 1.5 hrs for 8 repeated cycles further incubation under dark for 24 hrs by MTT assay; format: functional; conditions: light or radiation study
[2] = Induction of singlet oxygen generation in acetonitrile irradiated with blue light assessed as singlet oxygen quantum yield at 30 uM using ABDA by UV spectrophotometry; format: functional
[3] = Induction of singlet oxygen generation in water irradiated with blue light assessed as singlet oxygen quantum yield at 30 uM using ABDA by UV spectrophotometry; format: functional
HeLa [4] = experiment: Induction of apoptosis in human HeLa cells at 1 uM incubated for 3 hrs irradiated with blue light in presence of sodium azide by DAPI-Annexin V-PE staining based confocal microscopic analysis; format: functional, cell-based
[5] = Induction of singlet oxygen generation at 50 uM under dark condition at 37 degC by ABDA based singlet oxygen trap assay; format: functional
HeLa [6] = experiment: Induction of ROS generation in human HeLa cells irradiated with blue light at 1 uM incubated for 30 mins by DCFH-DA dye-based confocal microscopic analysis; format: functional, cell-based
[7] = Induction of singlet oxygen generation at 50 uM under blue light irradiation at 60 degC by ABDA based singlet oxygen trap assay; format: functional
[8] = Induction of singlet oxygen generation at 50 uM under blue light irradiation at 25 degC by ABDA based singlet oxygen trap assay; format: functional
[9] = Photostability in acetonitrile assessed as decrease in absorbance of pyridone moiety at 50 uM irradiated with light for 2.5 hrs by UV spectrophotometry
[10] = Photostability in acetonitrile assessed as singlet oxygen formation by measuring pyridone moiety band at 50 uM at 37 degC irradiated with light for 2.5 hrs by UV spectrophotometry
[11] = Induction of singlet oxygen generation at 50 uM under irradiation at 20 degC for 5 mins and dark at 37 degC fro 30 mins for several cycles by ABDA based singlet oxygen trap assay; format: functional
[12] = Photostability in acetonitrile assessed as PPN-EPO formation at 50 uM irradiated with light for 2.5 hrs by UV spectrophotometry
HeLa [13] = experiment: Induction of ROS generation in human HeLa cells irradiated with blue light at 1 uM incubated for 30 mins in presence of sodium azide by DCFH-DA dye-based confocal microscopic analysis; format: functional, cell-based
HeLa [14] = experiment: Induction of ROS generation in human HeLa cells under dark condition at 1 uM incubated for 30 mins at 37 degC by DCFH-DA dye-based confocal microscopic analysis; format: cell-based; conditions: 0.5 h
[15] = Induction of singlet oxygen generation at 50 uM under irradiation incubated for 15 mins by 1H-NMR spectroscopy; format: functional
HeLa [16] = experiment: Induction of apoptosis in human HeLa cells at 1 uM incubated for 3 hrs irradiated with blue light by DAPI-Annexin V-PE staining based confocal microscopic analysis; format: functional, cell-based

Structure (SMILES) | CC50 (HeLa [1]) [nM] | Activity [2] | Activity [3] | Activity (HeLa [4]) | Activity [5] | Activity (HeLa [6]) | Activity [7] | Activity [8] | Stability [9] | Stability [10] | Activity [11] | Stability [12] | Activity (HeLa [13]) | Activity (HeLa [14]) | Activity [15] | Activity (HeLa [16])
O=C1C(c2ccc(CN3C(=O)C4C=CC3OO4)cc2)=Cc2cccc3cccc1c23 (centres undefined) | 71.5 | 0.71 | 0.16 |  |  |  |  |  |  |  |  |  |  |  |  | 
O=C1C(c2ccc(Cn3ccccc3=O)cc2)=Cc2cccc3cccc1c23 | 26.5 | 0.64 | 0.12 | inactive | Active | Active | Active | inactive | Unstable | Stable | Active | Unstable | Active | Non-Toxic | Active | Active

Source: ChEMBL document CHEMBL4340548, “Pyridone-containing phenalenone-based photosensitizer working both under light and in the dark for photodynamic therapy” (Bioorg Med Chem, 2019)
